According to patent publication US20110251281A1, “Composite Material Comprising High-Molecular-Weight Matrix and Low-Molecular-Weight Organic Compound and Process For Producing Same” (NATIONAL INSTITUTE FOR MATERIALS SCIENCE, priority 2008, published 2011):

Experiments:
[1] = Am80 release from alkali-treated collagen composite materials in PBS, HPLC; format: physicochemical; conditions: PBS pH7.4, 37° C., in one day
Procedure: The high-molecular-weight matrices containing the low-molecular-weight organic compound prepared in 2-1 mentioned above were dried in a desiccator and then heated in an oven at 80° C. for 10 min. These composite materials were used as samples for HPLC.
The thus produced high-molecular-weight matrices were each transferred in a 250 mL polyethylene container, and 200 mL of PBS (pH7.4) was added thereto. These were heated in an incubator at 37° C. The supernatant thereof was sampled in a time course manner, and 50 μL each was assayed by HPLC.
In the HPLC method, the Nacalai Tesque COSMOSIL Packed Column (Size: 4.6 I.D.×150 mm; Type: 5C18-AR II ATERS) was used as the column, and a 5% HOAc/CH3CN=35/65 (v/v) aqueous solution was used as the eluent. The flow rate was 1.00 mL/min, and the column temperature was 40.0° C. The detection was conducted by UV-visible spectroscopy.
The elusion amount was calculated based on a calibration curve that had been formed in advance. Three kinds of drug/PBS (pH7.4) solutions were prepared within a concentration range from 1.14 μM to 569 μM, and assayed by HPLC. The condition for this assay was the same as the above. […]
In the HPLC method, the Am80 elusion amount was calculated under the same conditions as for the above-mentioned method.

[2] = Composite formation of AlGltn/TSC matrix containing amino acid derivative after immersion in water; format: physicochemical; conditions: 100 mM amino acid derivative, 20 mM TSC, water at 4° C. for one day
Procedure: High-molecular-weight matrices formed from alkali-treated gelatin (AlGltn; derived from pig bone) and TSC (citric acid derivative), in which an amino acid derivative was contained, were prepared. By immersing in water, DMSO was replaced by water and the amino acid was precipitated. The behavior of the high-molecular-weight matrices after the precipitation was observed by each type and concentration of the amino acid.
400 μl of a DMSO solution containing 15 w/v % AlGltn and 10% lactic acid was added with an amino acid derivative to give 100 mM in a 2 ml tube. The mixture was agitated and degassed. 100 μl of a 10% lactic acid-containing DMSO was added with TSC at 20 mM (4.84 mg) and agitated. The solution made by addition of the amino acid derivative to the AlGltn/10% lactic acid-containing DMSO solution, agitation, and degasification, was added with the TSC/10% lactic acid-containing DMSO solution. The mixture was agitated for 30 seconds and then degassed for 30 seconds. After leaving still for one day, the resulting high-molecular-weight matrix was taken out and immersed in water at 4° C. for one day. The gel was taken out and its behavior was observed.

Compound | Am80 released [1] | Composite formation [2]
CC1(C)CCC(C)(C)c2cc(NC(=O)c3ccc(C(=O)O)cc3)ccc21 [Am80, Tamibarotene] | 49% | 
CC(=O)N[C@@H](Cc1ccc(O)cc1)C(N)=O [AcTyrNH2] |  | Absent
CC[C@H](C)[C@H](NC(=O)OCC1c2ccccc2-c2ccccc21)C(=O)O [FmocIleOH] |  | Present
CC(=O)NC(Cc1c[nH]c2ccccc12)C(N)=O (stereo not shown) [AcTrpNH2] |  | Absent
O=C(N[C@@H](Cc1c[nH]c2ccccc12)C(=O)O)OCC1c2ccccc2-c2ccccc21 [FmocTrpOH] |  | Present
CC(C)(C)OC[C@H](NC(=O)OCC1c2ccccc2-c2ccccc21)C(=O)O [FmocSer(tBu)OH] |  | Present
O=C(N[C@@H](Cc1ccccc1)C(=O)O)OCC1c2ccccc2-c2ccccc21 [FmocPheOH] |  | Present
